In the test the test system is HCV pseudoparticles (genotype 1a HCV E1 and E2 envelope, H77C isolate). The experiment in a line: microbe, parasite or virus in culture. In kind it is cell-based. The settings on record: Hepatitis C virus.
[1] abbreviates: Huh-7, read-out: Activity (EC50 class), HCV pseudoparticles (genotype 1a, H77C) in Huh7 cells, EC50 expressed as class A/B.
Setting [2] is: Huh-7, 48 h, HCV pseudoparticles (genotype 1a, H77C) in Huh7 cells, average of duplicate, luciferase 2 days after infection.

Read-outs that look alike come from different tables or passages of the source.

As a reminder, the EC50 is the concentration needed to bring the measured effect to its halfway point. As for `COC(=O)[C@H](CCNC(=O)C(=O)Nc1ccc(Cc2ccccc2)cc1)NC(=O)c1ccc(Nc2nc(NC3(c4ccc(Cl)cc4)CC3)nc(OCC(F)(F)F)n2)cc1` [Compound 3120], the half-maximal effective concentration (EC50) under setting [1] lay in the range of 0.01 to 10 nM.

`COC(=O)[C@H](CCNC(=O)C(=O)Nc1ccc(N2CC(C)OC(C)C2)cc1)NC(=O)c1ccc(Nc2nc(NC3(c4ccc(Cl)cc4)CC3)nc(OCC(F)(F)F)n2)cc1` (some centres unmarked) [Compound 3121]: the EC50 is, setting by setting: under setting [2], 3.39 nM; under setting [1], 0.01 to 10 nM. In the case of `COC(=O)[C@H](CCNC(=O)C(=O)Nc1ccc(-c2cnco2)cc1)NC(=O)c1ccc(Nc2nc(NC3(c4ccc(Cl)cc4)CC3)nc(OCC(F)(F)F)n2)cc1` [Compound 3122], under setting [1], the EC50 fell in the range of 0.01 to 10 nM.

On to `COC(=O)[C@H](CCNC(=O)C(=O)Nc1ccc(Cc2ccncc2)cc1)NC(=O)c1ccc(Nc2nc(NC3(c4ccc(Cl)cc4)CC3)nc(OCC(F)(F)F)n2)cc1` [Compound 3123], for which the EC50 under setting [1] is 0.01 to 10 nM. For `COC(=O)[C@H](CCNC(=O)C(=O)Nc1ccc(-n2cnc(Cl)c2Cl)cc1)NC(=O)c1ccc(Nc2nc(NC3(c4ccc(Cl)cc4)CC3)nc(OCC(F)(F)F)n2)cc1` [Compound 3124], the EC50 runs as follows: under setting [2], 18.2 nM; under setting [1], 0.01 to 10 nM.

Regarding `COC(=O)[C@H](CCNC(=O)C(=O)Nc1ccc(OCC(F)(F)F)cc1)NC(=O)c1ccc(Nc2nc(NC3(c4ccc(Cl)cc4)CC3)nc(OCC(F)(F)F)n2)cc1` [Compound 3125], under setting [1], the EC50 fell in the range of 0.01 to 10 nM. The same measure, in the same setting: then `COC(=O)[C@H](CCNC(=O)C(=O)Nc1ccc(N2CCCC2=O)cc1)NC(=O)c1ccc(Nc2nc(NC3(c4ccc(Cl)cc4)CC3)nc(OCC(F)(F)F)n2)cc1` [Compound 3126], with 0.01 to 10 nM; and `COC(=O)[C@H](CCNC(=O)C(=O)Nc1ccc(-n2ccc(C(F)(F)F)n2)cc1)NC(=O)c1ccc(Nc2nc(NC3(c4ccc(Cl)cc4)CC3)nc(OCC(F)(F)F)n2)cc1` [Compound 3127], with 0.01 to 10 nM; and `COC(=O)[C@H](CCNC(=O)C(=O)Nc1ccc(C(=O)N2CCOCC2)cc1)NC(=O)c1ccc(Nc2nc(NC3(c4ccc(Cl)cc4)CC3)nc(OCC(F)(F)F)n2)cc1` [Compound 3128], with 0.01 to 10 nM. As to `C=Cc1ccc(NC(=O)C(=O)NCC[C@H](NC(=O)c2ccc(Nc3nc(NC4(c5ccc(Cl)cc5)CC4)nc(OCC(F)(F)F)n3)cc2)C(=O)OC)cc1` [Compound 3129], the EC50 under setting [2] is 0.089 nM and the 50% effective concentration (EC50) under setting [1] lay within 0.01 to 10 nM.

Regarding `COC(=O)[C@H](CCNC(=O)C(=O)Nc1ccc(-n2cncn2)cc1)NC(=O)c1ccc(Nc2nc(NC3(c4ccc(Cl)cc4)CC3)nc(OCC(F)(F)F)n2)cc1` [Compound 3130], under setting [1], the EC50 fell in the range of 0.01 to 10 nM.

Consider `COC(=O)[C@H](CCNC(=O)C(=O)Nc1ccc(N2CCN(Cc3ccccc3)CC2)cc1)NC(=O)c1ccc(Nc2nc(NC3(c4ccc(Cl)cc4)CC3)nc(OCC(F)(F)F)n2)cc1` [Compound 3131], for which the half-maximal effective concentration (EC50) under setting [1] lay within 0.01 to 10 nM.

On to `COC(=O)[C@H](CCNC(=O)C(=O)Nc1ccc(N(C)c2nc(C)cc(C)n2)cc1)NC(=O)c1ccc(Nc2nc(NC3(c4ccc(Cl)cc4)CC3)nc(OCC(F)(F)F)n2)cc1` [Compound 3133], for which, under setting [1], the half-maximal effective concentration (EC50) is 0.01 to 10 nM. Turning to `COC(=O)/C(CCNC(=O)C(=O)Nc1ccc(-n2nnnc2C)cc1)=N\C(=O)c1ccc(Nc2nc(NC3(c4ccc(Cl)cc4)CC3)nc(OCC(F)(F)F)n2)cc1` [Compound 3135], the concentration giving a half-maximal response (EC50) reads like this: under setting [2], 3.69 nM; under setting [1], 0.01 to 10 nM. As for `COC(=O)/C(CCNC(=O)C(=O)Nc1ccc(-n2cccn2)cc1)=N\C(=O)c1ccc(Nc2nc(NC3(c4ccc(Cl)cc4)CC3)nc(OCC(F)(F)F)n2)cc1` [Compound 3136], the EC50 under setting [1] lay within 0.01 to 10 nM. On the same count and under the same terms, then `COC(=O)/C(CCNC(=O)C(=O)Nc1ccc(-n2nc(C)cc2C)cc1)=N\C(=O)c1ccc(Nc2nc(NC3(c4ccc(Cl)cc4)CC3)nc(OCC(F)(F)F)n2)cc1` [Compound 3137], with 0.01 to 10 nM. Regarding `COC(=O)/C=C/c1ccccc1NC(=O)C(=O)NCC(C)(C)CNC(=O)c1ccc(Nc2nc(NC3(c4ccc(Cl)cc4)CC3)nc(OCC(F)(F)F)n2)cc1` [Compound 3138], the EC50 is 0.46 nM under setting [2] and 0.01 to 10 nM under setting [1].

As to `CC(C)(CNC(=O)C(=O)Nc1ccccc1Oc1ccccc1)CNC(=O)c1ccc(Nc2nc(NC3(c4ccc(Cl)cc4)CC3)nc(OCC(F)(F)F)n2)cc1` [Compound 3139], the EC50 under setting [1] lay in the range of 0.01 to 10 nM. On the same count and under the same terms, then `C=C(C)c1ccccc1NC(=O)C(=O)NCC(C)(C)CNC(=O)c1ccc(Nc2nc(NC3(c4ccc(Cl)cc4)CC3)nc(OCC(F)(F)F)n2)cc1` [Compound 3140], with 0.01 to 10 nM. Regarding `CC(C)(CNC(=O)C(=O)Nc1ccccc1C(=O)c1ccccc1)CNC(=O)c1ccc(Nc2nc(NC3(c4ccc(Cl)cc4)CC3)nc(OCC(F)(F)F)n2)cc1` [Compound 3141], the EC50 runs as follows: under setting [2], 0.11 nM; under setting [1], 0.01 to 10 nM. With `CC(C)(CNC(=O)C(=O)Nc1ccc(C(=O)c2ccccc2)cc1)CNC(=O)c1ccc(Nc2nc(NC3(c4ccc(Cl)cc4)CC3)nc(OCC(F)(F)F)n2)cc1` [Compound 3142], the half-maximal effective concentration (EC50) under setting [1] was in the range of 0.01 to 10 nM. For the compound `CC(C)(CNC(=O)C(=O)Nc1ccc(/C=C/c2ccccc2)cc1)CNC(=O)c1ccc(Nc2nc(NC3(c4ccc(Cl)cc4)CC3)nc(OCC(F)(F)F)n2)cc1` [Compound 3143], under setting [1], the concentration for a half-maximal effect (EC50) is 0.01 to 10 nM. Same read-out and setting: then `CCOC(=O)/C=C/c1ccc(NC(=O)C(=O)NCC(C)(C)CNC(=O)c2ccc(Nc3nc(NC4(c5ccc(Cl)cc5)CC4)nc(OCC(F)(F)F)n3)cc2)cc1` [Compound 3144], with 0.01 to 10 nM; and `CC(C)(CNC(=O)C(=O)Nc1ccc(OC(F)(F)F)cc1)CNC(=O)c1ccc(Nc2nc(NC3(c4ccc(Cl)cc4)CC3)nc(OCC(F)(F)F)n2)cc1` [Compound 3145], with 0.01 to 10 nM. For the compound `CC(C)(CNC(=O)C(=O)Nc1ccc(OC(F)F)cc1)CNC(=O)c1ccc(Nc2nc(NC3(c4ccc(Cl)cc4)CC3)nc(OCC(F)(F)F)n2)cc1` [Compound 3146], the EC50 by setting is: under setting [2], 0.05 nM; under setting [1], 0.01 to 10 nM.

Consider `O=C(NC/C(=N/C(=O)c1ccc(Nc2nc(NC3(c4ccc(Cl)cc4)CC3)nc(OCC(F)(F)F)n2)cc1)C(=O)O)C(=O)Nc1ccc(C2CCCCC2)cc1` [Compound 3147], for which, under setting [1], the concentration for a half-maximal effect (EC50) is 0.01 to 10 nM.

`O=C(NC/C(=N/C(=O)c1ccc(Nc2nc(NC3(c4ccc(Cl)cc4)CC3)nc(OCC(F)(F)F)n2)cc1)C(=O)O)C(=O)Nc1ccc(N2CCOCC2)cc1` [Compound 3148]: the half-maximal effective concentration (EC50) under setting [1] lay in the range of 0.01 to 10 nM. On the same count and under the same terms, then `O=C(NC/C(=N/C(=O)c1ccc(Nc2nc(NC3(c4ccc(Cl)cc4)CC3)nc(OCC(F)(F)F)n2)cc1)C(=O)O)C(=O)Nc1ccc(Cl)cc1` [Compound 3149], with 0.01 to 10 nM; and `O=C(NC/C(=N/C(=O)c1ccc(Nc2nc(NC3(c4ccc(Cl)cc4)CC3)nc(OCC(F)(F)F)n2)cc1)C(=O)O)C(=O)Nc1ccc(Oc2ccccc2)cc1` [Compound 3150], with 0.01 to 10 nM; and `O=C(NC/C(=N/C(=O)c1ccc(Nc2nc(NC3(c4ccc(Cl)cc4)CC3)nc(OCC(F)(F)F)n2)cc1)C(=O)O)C(=O)Nc1ccc(-c2ccccc2)cc1` [Compound 3151], with 0.01 to 10 nM. Still for that read-out and setting: then `O=C(NC/C(=N/C(=O)c1ccc(Nc2nc(NC3(c4ccc(Cl)cc4)CC3)nc(OCC(F)(F)F)n2)cc1)C(=O)O)C(=O)Nc1ccc(C(=O)c2ccccc2)cc1` [Compound 3152], with 0.01 to 10 nM. `Cc1ccc(NC(=O)C(=O)NC/C(=N/C(=O)c2ccc(Nc3nc(NC4(c5ccc(Cl)cc5)CC4)nc(OCC(F)(F)F)n3)cc2)C(=O)O)cc1` [Compound 3153]: under setting [1], the EC50 is 0.01 to 10 nM.

As to `O=C(NC/C(=N/C(=O)c1ccc(Nc2nc(NC3(c4ccc(Cl)cc4)CC3)nc(OCC(F)(F)F)n2)cc1)C(=O)O)C(=O)Nc1ccc(CCO)cc1` [Compound 3154], the concentration giving a half-maximal response (EC50) is, setting by setting: under setting [2], 1.44 nM; under setting [1], 0.01 to 10 nM. Take `NS(=O)(=O)c1ccc(NC(=O)C(=O)NC/C(=N/C(=O)c2ccc(Nc3nc(NC4(c5ccc(Cl)cc5)CC4)nc(OCC(F)(F)F)n3)cc2)C(=O)O)cc1` [Compound 3155]: the concentration giving a half-maximal response (EC50) under setting [1] is 0.01 to 10 nM.

With `NC(=O)c1ccc(NC(=O)C(=O)NC/C(=N/C(=O)c2ccc(Nc3nc(NC4(c5ccc(Cl)cc5)CC4)nc(OCC(F)(F)F)n3)cc2)C(=O)O)cc1` [Compound 3156], the 50% effective concentration (EC50) under setting [1] was in the range of 0.01 to 10 nM. Same read-out and setting: then `CCN(CC)CCNC(=O)c1ccc(NC(=O)C(=O)NC/C(=N/C(=O)c2ccc(Nc3nc(NC4(c5ccc(Cl)cc5)CC4)nc(OCC(F)(F)F)n3)cc2)C(=O)O)cc1` [Compound 3157], with 0.01 to 10 nM. On the same count and under the same terms, then `O=C(NC/C(=N/C(=O)c1ccc(Nc2nc(NC3(c4ccc(Cl)cc4)CC3)nc(OCC(F)(F)F)n2)cc1)C(=O)O)C(=O)Nc1ccc(NCc2ccccc2)cc1` [Compound 3158], with 0.01 to 10 nM; and `O=C(NC/C(=N/C(=O)c1ccc(Nc2nc(NC3(c4ccc(Cl)cc4)CC3)nc(OCC(F)(F)F)n2)cc1)C(=O)O)C(=O)Nc1ccc(Cc2ccccc2)cc1` [Compound 3159], with 0.01 to 10 nM; and `CC1CN(c2ccc(NC(=O)C(=O)NC/C(=N/C(=O)c3ccc(Nc4nc(NC5(c6ccc(Cl)cc6)CC5)nc(OCC(F)(F)F)n4)cc3)C(=O)O)cc2)CC(C)N1` (centres unmarked) [Compound 3160], with 0.01 to 10 nM.

`O=C(NC/C(=N/C(=O)c1ccc(Nc2nc(NC3(c4ccc(Cl)cc4)CC3)nc(OCC(F)(F)F)n2)cc1)C(=O)O)C(=O)Nc1ccc(-c2nnco2)cc1` [Compound 3161]: under setting [1], the EC50 lay within 0.01 to 10 nM. The same measure, in the same setting: the figure for `O=C(NC/C(=N/C(=O)c1ccc(Nc2nc(NC3(c4ccc(Cl)cc4)CC3)nc(OCC(F)(F)F)n2)cc1)C(=O)O)C(=O)Nc1ccc(Cc2ccncc2)cc1` [Compound 3162] is 0.01 to 10 nM. Same read-out and setting: then `O=C(NC/C(=N/C(=O)c1ccc(Nc2nc(NC3(c4ccc(Cl)cc4)CC3)nc(OCC(F)(F)F)n2)cc1)C(=O)O)C(=O)Nc1ccc(-n2cnc(O)c2O)cc1` [Compound 3163], with 0.01 to 10 nM.

On to `O=C(NC/C(=N/C(=O)c1ccc(Nc2nc(NC3(c4ccc(Cl)cc4)CC3)nc(OCC(F)(F)F)n2)cc1)C(=O)O)C(=O)Nc1ccc(OCC(F)(F)F)cc1` [Compound 3164], for which the concentration giving a half-maximal response (EC50) is 0.68 nM under setting [2] and 0.01 to 10 nM under setting [1]. Regarding `O=C(NC/C(=N/C(=O)c1ccc(Nc2nc(NC3(c4ccc(Cl)cc4)CC3)nc(OCC(F)(F)F)n2)cc1)C(=O)O)C(=O)Nc1ccc(N2CCCC2=O)cc1` [Compound 3165], under setting [1], the EC50 was 0.01 to 10 nM.

Source of the values: patent US8916702B2 (priority 2012, dated 2014).
